Drawing on US6509361B1, “1,5-Diaryl substituted pyrazoles as p38 kinase inhibitors” (Pharmacia Corporation, priority 2001, dated 2003), this text covers IC50 and melting point for four compounds.

The target of one data set is T1, human p38 kinase alpha (Homo sapiens, UniProt Q16539).
T1 construct: The coding region of the human p38a cDNA was obtained by PCR-amplification from RNA isolated from the human monocyte cell line THP.1; GST (N); made in house; host or cells: E. coli DH10B
In words: p38 Kinase Assay (in vitro; PHAS-I/32P-ATP format or EGFRP/33P-ATP format). To be noted: activated human p38 kinase alpha, 50 μM unlabeled ATP; table does not say which of the two assay formats. Format: biochemical. On the procedure: The coding region of the human p38a cDNA was obtained by PCR-amplification from RNA isolated from the human monocyte cell line THP.1. First strand cDNA was synthesized from total RNA as follows: 2 μg of RNA was annealed to 100 ng of random hexamer primers in a 10 μl reaction by heating to 70° C. for 10 minutes followed by 2 minutes on ice. cDNA was then synthesized by adding 1 μl of RNAsin (Promega, Madison Wis.), 2 μl of 50 mM dNTP's, 4 μl of 5×buffer, 2 μl of 100 mM DTT and 1 μl (200 U) of Superscript II™ […] reverse transcriptase. Random primer, dNTP's and Superscript™ reagents were all purchased from Life-Technologies, Gaithersburg, Mass. The reaction was incubated at 42° C. for 1 hour. Amplification of p38 cDNA was performed by aliquoting 5 μl of the reverse transcriptase reaction into a 100 μl PCR reaction containing the following: 80 μl dH2O, 2 μl 50 mM dNTP's, 1 μl each of forward and reverse primers (50 pmol/μl), 10 μl of 10× buffer and 1 μl Expand™ polymerase (Boehringer Mannheim). The PCR primers incorporated Bam HI sites onto the 5′ and 3′ end of the amplified fragment, and were purchased from Genosys. The forward and reverse primers were 5′-[…]-3′ and 5′[…]-3′, respectively. The PCR amplification was carried out in a DNA Thermal Cycler (Perkin Elmer) by repeating 30 cycles of 94° C. for 1 minute, 60° C. for 1 minute and 68° C. for 2 minutes. After amplification, excess primers and unincorporated dNTP's were removed from the amplified fragment with a Wizard™ PCR prep (Promega) and digested with Bam HI (New England Biolabs). The Bam HI digested fragment was ligated into BamHI digested pGEX 2T plasmid DNA (PharmaciaBiotech) using T-4 DNA ligase (New England Biolabs) as described by T. Maniatis, Molecular Cloning: A Laboratory Manual, 2nd ed. (1989). The ligation reaction was transformed into chemically competent E. coli DH10B cells purchased from Life-Technologies following the manufacturer's instructions. Plasmid DNA was isolated from the resulting bacterial colonies using a Promega Wizard™ miniprep kit. Plasmids containing the appropriate Bam HI fragment were sequenced in a DNA Thermal Cycler (Perkin Elmer) with Prism™ (Applied Biosystems Inc.). cDNA clones were identified that coded for both human p38a isoforms (Lee et al. Nature 372, 739). One of the clones which contained the cDNA for p38a-2 (CSBP-2) inserted in the cloning site of pGEX 2T, 3′ of the GST coding region was designated pMON 35802. The sequence obtained for this clone is an exact match of the cDNA clone reported by Lee et al. This expression plasmid allows for the production of a GST-p38a fusion protein.
Expression of Human p38a:
GST/p38a fusion protein was expressed from the plasmid pMON 35802 in E. coli, stain DH10B (Life Technologies, Gibco-BRL). Overnight cultures were grown in Luria Broth (LB) containing […] ampicillin. The next day, 500 ml of fresh LB was inoculated with 10 ml of overnight culture, and grown in a 2 liter flask at 37° C. with constant shaking until the culture reached an absorbance of 0.8 at 600 nm. Expression of the fusion protein was induced by addition of isopropyl b-D-thiogalactosidse (IPTG) to a final concentration of 0.05 mM. The cultures were shaken for three hours at room temperature, and the cells were harvested by centrifugation. The cell pellets were stored frozen until protein purification.
Purification of p38 Kinase-α:
All chemicals were from Sigma Chemical Co. unless noted. Twenty grams of E. coli cell pellet collected from five 1 L shake flask fermentations was resuspended in a volume of PBS (140 mM NaCl, 2.7 mM KCl, 10 mM Na2HPO4, 1.8 mM KH2PO4, pH 7.3) up to 200 ml. The cell suspension was adjusted to 5 mM DTT with 2 M DTT and then split equally into five 50 ml Falcon conical tubes. The cells were sonnicated (Ultrasonics model W375) with a 1 cm probe for 3×1 minutes (pulsed) on ice. […]

Data set [1] relates to TNF-a (LPS-stimulated human peripheral blood mononuclear cells). In words: TNF Cell Assay: LPS stimulation of human PBM cells, TNF-a by ELISA. The following applies: PBMC, LPS 20 ng/ml, overnight 37° C., compound 10-0.41 μM. The class given is cell-based. On the procedure:
Method of Isolation of Human Peripheral Blood Mononuclear Cells:
Human whole blood was collected in Vacutainer tubes containing EDTA as an anticoagulant. A blood sample (7 ml) was carefully layered over 5 ml PMN Cell Isolation Medium (Robbins Scientific) in a 15 ml round bottom centrifuge tube. The sample was centrifuged at 450-500×g for 30-35 minutes in a swing out rotor at room temperature. After centrifugation, the top band of cells were removed and washed 3 times with PBS w/o calcium or magnesium. The cells were centrifuged at 400×g for 10 minutes at room temperature. The cells were resuspended in Macrophage Serum Free Medium (Gibco BRL) at a concentration of 2 million cells/ml.
LPS Stimulation of Human PBMS:
PBM cells (0.1 ml, 2 million/ml) were co-incubated with 0.1 ml compound (10-0.41 μM, final concentration) for 1 hour in flat bottom 96 well microtiter plates. Compounds were dissolved in DMSO initially and diluted in TCM for a final concentration of 0.1% DMSO. LPS (Calbiochem, 20 ng/ml, final concentration) was then added at a volume of 0.010 ml. Cultures were incubated overnight at 37° C. Supernatants were then removed and tested by ELISA for TNF-a and IL1-b. Viability was analyzed using MTS. After 0.1 ml supernatant was collected, 0.020 ml MTS was added to remaining 0.1 ml cells. The cells were incubated at 37° C. for 2-4 hours, then the O.D. was measured at […].
For orientation: ELISA stands for enzyme-linked immunosorbent assay.

The test system of data set [2] is TNF-α released by U937 cells (human histiocytic lymphoma cell line). In words: U937 Cell Assay: LPS stimulation of TNF production by U937 cells, ELISA. Format: cell-based. The following applies: U-937, differentiated U937 cells, LPS 100 ng/ml, 4 hour incubation. On the procedure:
Maintenance and Differentiation of the U937 Human Histiocytic Lymphoma Cell Line:
U937 cells (ATCC) were propagated in RPMI 1640 containing 10% fetal bovine serum, 100 IU/ml penicillin, 100 μg/ml streptomycin, and 2 mM glutamine (Gibco). Fifty million cells in 100 ml media were induced to terminal monocytic differentiation by 24 hour incubation with 20 ng/ml phorbol 12-myristate 13-acetate (Sigma). The cells were washed by centrifugation (200×g for 5 min) and resuspended in 100 ml fresh medium. After 24-48 hours, the cells were harvested, centrifuged, and resuspended in culture medium at 2 million cells/ml.
LPS Stimulation of TNF Production by U937 Cells:
U937 cells (0.1 ml, 2 million/ml) were incubated with 0.1 ml compound (0.004-50 μM, final concentration) for 1 hour in 96 well microtiter plates. Compounds were prepared as 10 mM stock solutions in DMSO and diluted in culture medium to yield a final DMSO concentration of 0.1% in the cell assay. LPS (E. coli, 100 ng/ml final concentration) was then added at a volume of 0.02 ml. After 4 hour incubation at 37° C., the amount of TNF-α released in the culture medium was quantitated by ELISA. Inhibitory potency is expressed as IC50 (μM).

Each structure is given as a SMILES string.

For orientation: IC50 means the concentration at which inhibition is half-maximal. What is called melting point is the temperature of the solid-liquid transition.

T1 sequence (Q16539 whole entry): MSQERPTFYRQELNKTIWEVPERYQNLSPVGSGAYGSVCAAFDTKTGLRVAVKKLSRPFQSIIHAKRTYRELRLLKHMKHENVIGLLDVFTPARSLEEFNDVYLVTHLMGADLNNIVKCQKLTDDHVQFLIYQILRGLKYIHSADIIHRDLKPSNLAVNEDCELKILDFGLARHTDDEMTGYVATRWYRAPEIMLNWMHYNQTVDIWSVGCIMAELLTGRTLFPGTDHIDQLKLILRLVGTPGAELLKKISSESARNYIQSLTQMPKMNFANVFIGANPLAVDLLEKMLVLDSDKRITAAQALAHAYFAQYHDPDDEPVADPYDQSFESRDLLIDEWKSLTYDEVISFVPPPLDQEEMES

Consider `Cc1cccc(-n2nc(C)cc2-c2ccnc(NCCc3ccccc3)c2)c1` [Example 24, 2-(Phenylethylamino)-4-[1-(3-methylphenyl)-3-methyl-1H-pyrazol-5-yl]pyridine], for which the melting point was in the range of 86 to 87 °C. The same compound returned a half-maximal inhibitory concentration (IC50) at human p38 kinase alpha of less than 0.01 µM. In data set [1], this compound returned an IC50 of 0.02 µM. The 50% inhibitory concentration (IC50) in data set [2] amounted to 0.05 µM.

For the compound `Cc1cccc(-n2nc(C)cc2-c2ccnc(C#N)c2)c1` [Example 31, 2-Cyano-4-[1-(3-methylphenyl)-3 methyl-1H-pyrazol-5-yl]pyridine], the melting point lay within 128 to 130 °C. The same compound had an IC50 against human p38 kinase alpha of 0.5 µM. For the same compound, the half-inhibitory concentration (IC50) in data set [1] is 1.7 µM. Also, the IC50 in data set [2] worked out at 1.65 µM.

With `Cc1cc(-c2ccnc(C#N)c2)n(-c2ccc(F)cc2)n1` [Example 32, 2-Cyano-4-[1-(4-fluorophenyl)-3-methyl-1H-pyrazol-5-yl]pyridine], the melting point lay in the range of 94 to 95 °C. Further, half-maximal inhibition on human p38 kinase alpha (IC50) was put at 2.97 µM. Further, in data set [1], the IC50 is greater than 10 µM. Further, the IC50 in data set [2] is greater than 10 µM.

Compound `Cc1cccc(-n2nc(C)cc2-c2ccnc(N(C)C)c2)c1` [Example 35, 2-(Dimethylamino)-4-[1-(3-methylphenyl)-3-methyl-1H-pyrazol-5-yl]pyridine] displayed a melting point of 84 to 85 °C. In addition, on human p38 kinase alpha, the half-inhibitory concentration (IC50) stood at 1.15 µM. Besides, it took 3.4 µM to reach half-maximal inhibition in data set [1] (IC50). Also, in data set [2], the concentration for half-maximal inhibition (IC50) was no less than 10 µM.
